Assay results reported in patent publication US20060014709A1, “Drug or cosmetic” (priority 2002, published 2006).
Like-named read-outs stand apart in the source and are kept apart here.

Test system: human peripheral blood T lymphocytes / cytotoxic macrophages
Type: cell-based
From the text: Another embodiment of the method for screening a compound which can prevent, mitigate or treat renal glomerular lesions, lesions of pancreatic islets of Langerhans or epidermal lesions include a method for screening a compound in the presence of which a number of produced cytotoxic macrophages is decreased, comprising the steps of (i) inducing cytotoxic macrophages by cultivating human peripheral blood mononuclear cells in RPMI 1640 medium in the presence of lipopolysaccharide and human AB type serum; (ii) at the same time, inducing unfractionated T lymphocytes by cultivating human peripheral blood unfractionated T lymphocytes with or without lipopolysaccharide in the presence of the test compound; (iii) bringing the cytotoxic macrophages obtained in (i) into contact with monolayered autologous erythrocytes in the presence of the unfractionated T lymphocytes obtained in (ii), and measuring a number of produced cytotoxic macrophages; and (iv) comparing with the number of generated cytotoxic macrophages in the absence of the test compound (for convenience, referred to as screening method C).
(a) Induction of cytotoxic macrophages is described below. To 2×10^6PBMC floated on RPMI1640 medium containing human normal serum of type AB, 2 mM of L-glutamine and 5 μg/mL of gentamicin, LPS is added so as to make a concentration 80 μg/mL, and the PBMC is cultivated for 6 days at 37° C. under 5% CO2-95% air to induce cytotoxic macrophages. The PBMC is obtained similarly as in the screening method A. The induced cytotoxic macrophages are recovered from the medium. In the recovering, a known method may be used, including a method of collecting adhered materials with a rubber-policeman (rubber spatula). Then, the recovered cytotoxic macrophages may be washed. In washing, a Hanks solution with about 5 μg/mL of gentamicin is preferably used.
(b) Induction of unfractionated T lymphocytes is described below. First, human peripheral blood unfractionated T lymphocytes is separated as described below. As described in the screening method A, to a PBMC fraction separated by a specific gravity centrifugal method was added sheep erythrocytes treated with neuraminidase and reacted for 20 minutes at 37° C. This solution is gently added to a tube in which Percolls of discontinuous specific gravities are layered, and centrifuged at 400×g for 20 minutes at room temperature. In the layered Percolls of discontinuous specific gravities, fractions of rosetted T lymphocytes and monocytes floating on a layer of not less than d=1.091 are collected respectively. To the fraction of rosetted T lymphocytes is added ammonium chloride to hemolyze the sheep erythrocyte and a fraction of T lymphocytes is obtained. The fraction of monocytes obtained at the same time is washed. […]

O=C1CC[C@@](Sc2ccc(Cl)cc2)(C(=O)OCc2ccccc2)O1 (stereo in doubt) [compound (III-1), 2-(4-chlorophenyl)thio-5-oxo-2-tetrahydrofurancarboxylic acid benzyl ester]
induction of regulatory CD2^−CD4^+ T lymphocytes (in words): induces regulatory CD2^−CD4^+ T lymphocytes | Inhibition rate (%) of SPFC positive cells versus T lymphocytes treated with solvent (T lymphocytes treated with 0.1 μg/ml of compound): 69.2% | Inhibition rate (%) of SPFC positive cells versus T lymphocytes treated with solvent (T lymphocytes treated with 1 μg/ml of compound): 53.8% | Inhibition rate (%) of SPFC positive cells versus T lymphocytes treated with solvent (T lymphocytes treated with 10 μg/ml of compound): 92.3%
